Reference: patent US20250333398A1, “MONOARYL AND HETARYL SUBSTITUTED INDAZOLES AND BENZIMIDAZOLES AS STING ANTAGONISTS AND THE USE THEREOF AS MEDICAMENT” (Boehringer Ingelheim International GmbH, priority 2024, published 2025)

Tests used:
[1] = test system: STING; assay: IP10 production in human dermal microvascular endothelial cells (MVEC) after double-stranded DNA stimulation; type: cell-based; details: IP10 production after dsDNA stimulation; rounded average of multiple experiments; read-out: Inhibition of Human microvascular endothelial cells (IC50 nM)
Excerpt: Interferon gamma-induced protein 10 (IP-10) also known as C—X—C motif chemokine ligand 10 (CXCL10) is produced as one of the responses of the presence of double-stranded DNA in the cytoplasm and resulting STING activity. In some diseases, imbalanced STING activation can result to damage in the endothelium, for example in SAVI patients (Liu Yet al. Activated STING in a vascular and pulmonary syndrome. N Engl J Med. 2014 Aug. 7; 371(6):507-518. doi: 10.1056/NEJMoa1312625). To test the efficacy of the inventive STING inhibitors, experiments in human microvascular endothelial cells (HMVEC) are performed with the inventive compounds. Dermal HMVEC are available from Lonza, US. They are cultured in 96 well plates according to the manufacturer's instructions. Using typical protocols, the cells are serum starved and then treated with the compound for 1 hour. The cells are then treated with 400 ng/mL of dsDNA as a complex with Lipofectamine 3000 (from Thermo Fisher Scientific Inc., Waltham, MA, USA) and incubated for 6 hours. The supernatants are collected and assayed for IP10 production.
Detection of IP10 is done using the U-PLEX HUMAN IP-10 ASSAY from Meso Scale Diagnostics (1601 Research Boulevard, Rockville, Maryland 20850-3173, USA) according to manufacturer's protocols.

[2] = test system: T1, STING; assay: Human whole blood assay (HWBA), cGAMP-stimulated IFNα2α production; type: cell-based; details: human whole blood stimulated by cGAMP
T1 construct: from tissue; host or cells: human whole blood from healthy donors
Procedure: For the detection of STING inhibition in physiological environment human whole blood was stimulated by the cyclic dinucleotide cGAMP. Pathway activity was monitored by measuring the IFNα2α production.
Assay method: Compounds were delivered as 10 mM DMSO solution and serial diluted and transferred to the 96-well Cell culture Plate (Corning #3595), prefilled with 20 μl OptiMEM (Gibco #11058-021) in each well, using an Echo acoustic dispenser. Typically, 8 concentrations were used with the highest concentration at 10 μM in the final assay volume followed by ^˜1:5 dilution steps. DMSO concentration was set to 0.1% in the final assay volume. The 96 well assay plate contained 9 test compounds, a reference compound and DMSO in control wells.
Collection of human whole blood from 3 or more healthy donors (male or female, no medication for 7 days, exception contraceptive and thyroxine) as Na-citrate blood (e.g. 3.8% in Monovettes from Sarstedt) is conducted in parallel. Whole blood was kept at room temperature for a maximum of 3 hours after collection until use in the assay.
160 μl of the whole blood samples were transferred to each well of the 96-well assay plates filled with compound/OptiMEM. All assay plates are prepared as duplicates with blood from different donors. Blood plates were kept at room temperature for 60 minutes and continuous shaking with 450 rpm, covered with the lid, but not sealed.
A 10× cGAMP assay solution was diluted from a 2 mM stock solution in 1×HBSS immediately before use at room temperature. 20 μl of the 10× cGAMP/HBSS were added to all compound and all high control wells, whereas HBSS only was added to all low control wells.
After covering assay plates with aera seals and the lid, blood plates were kept at room temperature for 30 minutes and continuous shaking with 450 rpm, followed by an overnight incubation of 22 h at 37° C. in the incubator, without shaking.
For the detection of IFNα-2α in human plasma, the biotinylated capture antibody (Antibody set IFNA2, Meso Scale Diagnostics #B21VH-3, including coating and capture antibody) was diluted 1:17.5 in Diluent 100 (Meso Scale Diagnostics #R50AA-4, according to the manufacturer. U-Plex MSD GOLD 96-well Small Spot Streptavidin SECTOR Plates (Meso Scale Diagnostics #L45SA-5) were coated with 25 μl diluted capture antibody. Coated plates were incubated for 60 min at room temperature under continuous shaking at 700 rpm. MSD IFNα-2α plates were washed three times with 150 μl wash buffer (1×HBSS, 0.05% Tween).
After blocking the plates with 100 μl block solution/well (1×HBSS with 0.2% Tween, 2% BSA) for 60 min at room temperature and continuous shaking at 700 rpm, plates were emptied as dry as possible by dumping just before continuing with the human plasma. Whole Blood assay plates were centrifuged at 1600 rpm for 10 minutes. 25 μl of supernatant was transferred with a pipetting robotics from each whole blood plate to the corresponding IFNα-2α plate. Plates were sealed with microplate seals and kept at room temperature again under continuous shaking at 700 rpm for two hours. Next MSD IFNα-2α plates were washed three times with 150 μl wash buffer (1×HBSS, 0.05% Tween), before adding 25 μl MSD SULFO-TAG IFNα-2α Antibody solution (1:100 diluted in Diluent 3 (Meso Scale Diagnostics #R50AP-2) to each well of the plates. Afterwards plates were sealed with microplate seals and kept at room temperature again under continuous shaking at 700 rpm for two hours. Finally, MSD IFNα-2α plates were washed three times with 150 μl wash buffer (1×HBSS, 0.05% Tween). 150 μl 2× Read buffer was added to each well and plates were immediately measured with the MSD Sector S600 Reader using the vendor barcode.
Data evaluation and calculation: For data evaluation and calculation, % control calculation of each well was based on the mean of high (cGAMP stimulated control) and mean of low (unstimulated control) controls by using the following formula: […]

| SMILES | IC50 [1] [nM] | IC50 [2] [nM] |
| --- | --- | --- |
| CC[P@](C)(=O)c1ccc(-c2nc(-c3cccc4nn(-c5cc(C(F)(F)F)n(C)n5)cc34)c(C3CC3)n2C)c(OC(F)(F)F)c1 [Example 10, 4-(5-cyclopropyl-2-{4-[(S)-ethyl(methyl)phosphoryl]-2-(trifluoromethoxy)phenyl}-1-methyl-1H-imidazol-4-yl)-2-[1-methyl-5-(trifluoromethyl)-1H-pyrazol-3-yl]-2H-indazole] | 11 | 78 |
| Cn1nc(-n2cc3c(-c4nc(-c5ccc(P(C)(C)=O)cc5OC(F)(F)F)n(C)c4C4CC4)cccc3n2)cc1C(F)(F)F [Example 20, 4-{5-cyclopropyl-2-[4-(dimethylphosphoryl)-2-(trifluoromethoxy)phenyl]-1-methyl-1H-imidazol-4-yl}-2-[1-methyl-5-(trifluoromethyl)-1H-pyrazol-3-yl]-2H-indazole] | 33 | 180 |
